The numbers were not newly measured in US20230210786A1, “METHOD FOR SO[…], […] […] CANNABINOIDS” (ATHENION AG, priority 2020, published 2023), which cites them from elsewhere.

SMILES strings stand for the structures.

The conditions of the data set: in vivo.

As for `CCCCCc1cc(O)c2c(c1)OC(C)(C)[C@@H]1CCC(C)=C[C@@H]21` [THC, (-)-trans-Δ^9-tetrahydrocannabinol], the “apparent volume of distribution” value is 10 L/kg and the plasma protein binding entry is given as “ca. 97%”.
